In publication PMC9851200, “Multiparameter phenotypic screening for endogenous TFEB and TFE3 translocation identifies novel chemical series modulating lysosome function” (Autophagy, 2022):

Columns and labels:
Assay type in all cases: binding
[1] = target: kinases (KINOMEscan panel) (Homo sapiens, UniProt P08581)
[2] = target: kinases (KINOMEscan panel) (Homo sapiens, UniProt Q9UK32)
[3] = target: kinases (KINOMEscan panel) (Homo sapiens, UniProt P27361)
[4] = target: kinases (KINOMEscan panel) (Homo sapiens, UniProt O75676); details: NEW KINOMEscan
Chain of kinases (KINOMEscan panel) (Homo sapiens, UniProt O75676) (O75676 whole entry): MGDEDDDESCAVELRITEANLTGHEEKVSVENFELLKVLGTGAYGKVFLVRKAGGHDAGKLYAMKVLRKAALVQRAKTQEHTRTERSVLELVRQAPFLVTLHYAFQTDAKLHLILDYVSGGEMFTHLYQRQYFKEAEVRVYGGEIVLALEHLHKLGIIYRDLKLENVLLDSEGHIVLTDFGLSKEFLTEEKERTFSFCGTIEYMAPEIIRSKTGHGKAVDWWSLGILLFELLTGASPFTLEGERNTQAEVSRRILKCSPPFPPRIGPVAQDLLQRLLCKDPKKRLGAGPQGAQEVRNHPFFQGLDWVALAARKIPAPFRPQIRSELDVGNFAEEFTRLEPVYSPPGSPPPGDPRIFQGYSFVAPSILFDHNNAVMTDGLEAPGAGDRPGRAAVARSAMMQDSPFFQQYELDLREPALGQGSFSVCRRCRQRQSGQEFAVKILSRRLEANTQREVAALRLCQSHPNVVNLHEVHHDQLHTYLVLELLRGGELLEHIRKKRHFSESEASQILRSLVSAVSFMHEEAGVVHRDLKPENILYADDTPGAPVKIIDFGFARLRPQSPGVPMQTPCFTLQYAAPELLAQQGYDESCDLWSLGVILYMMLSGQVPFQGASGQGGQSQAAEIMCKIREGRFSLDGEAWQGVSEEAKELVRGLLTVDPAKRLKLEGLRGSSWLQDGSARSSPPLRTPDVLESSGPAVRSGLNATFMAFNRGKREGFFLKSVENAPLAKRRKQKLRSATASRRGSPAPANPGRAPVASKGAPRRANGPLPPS

[5] = target: kinases (KINOMEscan panel) (Homo sapiens, UniProt Q99683)
[6] = target: kinases (KINOMEscan panel) (Homo sapiens, UniProt P52564)
[7] = target: kinases (KINOMEscan panel) (Homo sapiens, UniProt Q15349)
Chain of kinases (KINOMEscan panel) (Homo sapiens, UniProt Q15349) (Q15349 whole entry): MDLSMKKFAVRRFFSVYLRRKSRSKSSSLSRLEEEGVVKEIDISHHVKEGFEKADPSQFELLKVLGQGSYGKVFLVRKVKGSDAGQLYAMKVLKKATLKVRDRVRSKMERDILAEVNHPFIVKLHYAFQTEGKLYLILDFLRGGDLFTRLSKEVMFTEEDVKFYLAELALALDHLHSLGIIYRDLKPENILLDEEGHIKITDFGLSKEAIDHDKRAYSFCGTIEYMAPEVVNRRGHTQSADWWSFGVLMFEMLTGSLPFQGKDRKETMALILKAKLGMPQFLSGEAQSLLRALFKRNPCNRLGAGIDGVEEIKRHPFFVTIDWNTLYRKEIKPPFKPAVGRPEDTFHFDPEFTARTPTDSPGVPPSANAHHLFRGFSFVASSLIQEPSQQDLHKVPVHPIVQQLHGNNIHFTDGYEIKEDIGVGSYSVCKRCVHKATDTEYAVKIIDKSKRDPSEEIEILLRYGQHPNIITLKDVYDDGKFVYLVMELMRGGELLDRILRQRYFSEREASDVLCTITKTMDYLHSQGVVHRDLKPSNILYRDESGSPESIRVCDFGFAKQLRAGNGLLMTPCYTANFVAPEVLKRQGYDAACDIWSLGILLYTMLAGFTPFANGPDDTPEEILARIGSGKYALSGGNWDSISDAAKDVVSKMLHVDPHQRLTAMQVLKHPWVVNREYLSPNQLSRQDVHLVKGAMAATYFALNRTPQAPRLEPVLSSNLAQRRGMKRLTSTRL

[8] = target: kinases (KINOMEscan panel) (Homo sapiens, UniProt Q13153)
[9] = target: kinases (KINOMEscan panel) (Homo sapiens, UniProt O60285)
Chain of kinases (KINOMEscan panel) (Homo sapiens, UniProt O60285) (O60285 whole entry): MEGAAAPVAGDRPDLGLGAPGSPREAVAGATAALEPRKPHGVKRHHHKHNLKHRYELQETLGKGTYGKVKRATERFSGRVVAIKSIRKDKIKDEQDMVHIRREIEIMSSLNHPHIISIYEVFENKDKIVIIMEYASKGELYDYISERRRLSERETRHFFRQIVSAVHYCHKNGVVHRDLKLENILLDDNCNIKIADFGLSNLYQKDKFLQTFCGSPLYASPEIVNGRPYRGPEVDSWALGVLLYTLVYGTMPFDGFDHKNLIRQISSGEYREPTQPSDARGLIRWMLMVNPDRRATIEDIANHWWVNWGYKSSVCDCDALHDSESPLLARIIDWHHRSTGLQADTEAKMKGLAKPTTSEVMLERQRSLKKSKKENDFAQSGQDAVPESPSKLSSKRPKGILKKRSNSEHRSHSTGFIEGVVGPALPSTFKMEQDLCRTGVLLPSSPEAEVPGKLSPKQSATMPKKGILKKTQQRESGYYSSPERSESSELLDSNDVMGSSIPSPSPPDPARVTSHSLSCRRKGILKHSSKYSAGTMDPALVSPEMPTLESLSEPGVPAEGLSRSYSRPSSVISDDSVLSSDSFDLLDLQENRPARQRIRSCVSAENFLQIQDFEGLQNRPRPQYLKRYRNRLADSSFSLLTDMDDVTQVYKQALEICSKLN

[10] = target: kinases (KINOMEscan panel) (Homo sapiens, UniProt Q05397)
[11] = target: kinases (KINOMEscan panel) (Homo sapiens, UniProt Q16659)
[12] = target: kinases (KINOMEscan panel) (Homo sapiens, UniProt Q86UX6)
[13] = target: kinases (KINOMEscan panel) (Homo sapiens, UniProt P35968)
[14] = target: kinases (KINOMEscan panel) (Homo sapiens, UniProt Q8IY84)
[15] = target: kinases (KINOMEscan panel) (Homo sapiens, UniProt Q15831)
[16] = target: kinases (KINOMEscan panel) (Homo sapiens, UniProt Q6P2M8)
[17] = target: kinases (KINOMEscan panel) (Homo sapiens, UniProt Q13164)
[18] = target: kinases (KINOMEscan panel) (Homo sapiens, UniProt O14733)
[19] = target: kinases (KINOMEscan panel) (Homo sapiens, UniProt Q12852)
[20] = target: kinases (KINOMEscan panel) (Homo sapiens, UniProt Q9UEE5)
[21] = target: kinases (KINOMEscan panel) (Homo sapiens, UniProt Q13043)
[22] = target: kinases (KINOMEscan panel) (Homo sapiens, UniProt Q9NYL2)
[23] = target: kinases (KINOMEscan panel) (Homo sapiens, UniProt Q8NEB9)
[24] = target: kinases (KINOMEscan panel) (Homo sapiens, UniProt Q9Y6E0)
[25] = target: kinases (KINOMEscan panel) (Homo sapiens, UniProt Q13882)
[26] = target: kinases (KINOMEscan panel) (Homo sapiens, UniProt Q15418)
Chain of kinases (KINOMEscan panel) (Homo sapiens, UniProt Q15418) (Q15418 whole entry): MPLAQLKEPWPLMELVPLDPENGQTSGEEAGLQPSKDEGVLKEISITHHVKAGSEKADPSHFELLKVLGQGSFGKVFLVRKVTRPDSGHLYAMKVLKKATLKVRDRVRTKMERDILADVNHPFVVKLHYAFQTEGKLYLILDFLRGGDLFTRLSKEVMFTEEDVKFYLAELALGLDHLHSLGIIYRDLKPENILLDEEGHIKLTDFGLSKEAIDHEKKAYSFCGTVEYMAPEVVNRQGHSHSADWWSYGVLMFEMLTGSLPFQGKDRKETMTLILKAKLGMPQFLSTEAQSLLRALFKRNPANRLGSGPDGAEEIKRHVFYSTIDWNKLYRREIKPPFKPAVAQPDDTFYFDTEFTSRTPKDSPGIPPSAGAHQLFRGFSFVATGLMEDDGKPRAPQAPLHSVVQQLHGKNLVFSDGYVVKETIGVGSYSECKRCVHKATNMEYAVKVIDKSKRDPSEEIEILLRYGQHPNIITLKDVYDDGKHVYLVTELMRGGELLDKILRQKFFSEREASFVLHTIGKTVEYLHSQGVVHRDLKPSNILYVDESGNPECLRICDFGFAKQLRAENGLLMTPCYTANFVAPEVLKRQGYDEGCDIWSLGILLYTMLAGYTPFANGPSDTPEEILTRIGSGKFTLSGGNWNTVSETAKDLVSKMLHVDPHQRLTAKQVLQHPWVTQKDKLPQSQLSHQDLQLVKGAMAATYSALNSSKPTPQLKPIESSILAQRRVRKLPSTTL

[27] = target: kinases (KINOMEscan panel) (Homo sapiens, UniProt Q9NSY1)
[28] = target: kinases (KINOMEscan panel) (Homo sapiens, UniProt Q9Y2K2)
[29] = target: kinases (KINOMEscan panel) (Homo sapiens, UniProt Q16620)
[30] = target: kinases (KINOMEscan panel) (Homo sapiens, UniProt P07947)
[31] = target: kinases (KINOMEscan panel) (Homo sapiens, UniProt P31152)
[32] = target: kinases (KINOMEscan panel) (Homo sapiens, UniProt Q9NY57)
[33] = target: kinases (KINOMEscan panel) (Homo sapiens, UniProt Q92918)
[34] = target: kinases (KINOMEscan panel) (Homo sapiens, UniProt Q13163)
[35] = target: kinases (KINOMEscan panel) (Homo sapiens, UniProt Q14289)
[36] = target: kinases (KINOMEscan panel) (Homo sapiens, UniProt P45985)
[37] = target: kinases (KINOMEscan panel) (Homo sapiens, UniProt Q8WU08)
[38] = target: kinases (KINOMEscan panel) (Homo sapiens, UniProt P45983)
Chain of kinases (KINOMEscan panel) (Homo sapiens, UniProt P45983) (P45983 whole entry): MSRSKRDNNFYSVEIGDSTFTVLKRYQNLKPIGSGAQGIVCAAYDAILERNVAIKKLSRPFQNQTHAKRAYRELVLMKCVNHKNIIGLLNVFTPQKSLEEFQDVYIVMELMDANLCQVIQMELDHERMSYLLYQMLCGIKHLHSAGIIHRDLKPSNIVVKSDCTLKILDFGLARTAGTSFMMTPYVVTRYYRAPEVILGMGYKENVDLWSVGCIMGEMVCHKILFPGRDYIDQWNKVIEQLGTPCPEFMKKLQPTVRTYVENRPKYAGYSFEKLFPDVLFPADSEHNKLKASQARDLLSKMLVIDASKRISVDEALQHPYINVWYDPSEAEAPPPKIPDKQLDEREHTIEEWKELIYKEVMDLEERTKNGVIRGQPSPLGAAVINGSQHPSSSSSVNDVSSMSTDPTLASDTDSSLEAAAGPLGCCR

[39] = target: kinases (KINOMEscan panel) (Homo sapiens, UniProt Q8TD08)
Chain of kinases (KINOMEscan panel) (Homo sapiens, UniProt Q8TD08) (Q8TD08 whole entry): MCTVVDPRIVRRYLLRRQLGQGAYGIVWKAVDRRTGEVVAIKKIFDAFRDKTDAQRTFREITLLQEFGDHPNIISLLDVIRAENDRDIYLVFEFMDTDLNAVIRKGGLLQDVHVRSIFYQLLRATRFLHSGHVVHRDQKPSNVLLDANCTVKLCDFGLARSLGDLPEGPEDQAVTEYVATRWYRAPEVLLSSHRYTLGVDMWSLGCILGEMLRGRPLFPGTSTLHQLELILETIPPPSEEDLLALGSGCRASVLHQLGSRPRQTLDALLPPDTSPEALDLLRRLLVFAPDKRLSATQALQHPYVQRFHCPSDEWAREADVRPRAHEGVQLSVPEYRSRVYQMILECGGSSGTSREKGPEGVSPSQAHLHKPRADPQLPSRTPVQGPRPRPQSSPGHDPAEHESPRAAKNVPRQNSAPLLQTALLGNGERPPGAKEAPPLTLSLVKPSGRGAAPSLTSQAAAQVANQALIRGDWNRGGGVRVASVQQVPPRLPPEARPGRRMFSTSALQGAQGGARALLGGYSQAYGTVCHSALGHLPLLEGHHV

[40] = target: kinases (KINOMEscan panel) (Homo sapiens, UniProt O95382)

Chain of kinases (KINOMEscan panel) (Homo sapiens, UniProt Q9UK32) (Q9UK32 whole entry): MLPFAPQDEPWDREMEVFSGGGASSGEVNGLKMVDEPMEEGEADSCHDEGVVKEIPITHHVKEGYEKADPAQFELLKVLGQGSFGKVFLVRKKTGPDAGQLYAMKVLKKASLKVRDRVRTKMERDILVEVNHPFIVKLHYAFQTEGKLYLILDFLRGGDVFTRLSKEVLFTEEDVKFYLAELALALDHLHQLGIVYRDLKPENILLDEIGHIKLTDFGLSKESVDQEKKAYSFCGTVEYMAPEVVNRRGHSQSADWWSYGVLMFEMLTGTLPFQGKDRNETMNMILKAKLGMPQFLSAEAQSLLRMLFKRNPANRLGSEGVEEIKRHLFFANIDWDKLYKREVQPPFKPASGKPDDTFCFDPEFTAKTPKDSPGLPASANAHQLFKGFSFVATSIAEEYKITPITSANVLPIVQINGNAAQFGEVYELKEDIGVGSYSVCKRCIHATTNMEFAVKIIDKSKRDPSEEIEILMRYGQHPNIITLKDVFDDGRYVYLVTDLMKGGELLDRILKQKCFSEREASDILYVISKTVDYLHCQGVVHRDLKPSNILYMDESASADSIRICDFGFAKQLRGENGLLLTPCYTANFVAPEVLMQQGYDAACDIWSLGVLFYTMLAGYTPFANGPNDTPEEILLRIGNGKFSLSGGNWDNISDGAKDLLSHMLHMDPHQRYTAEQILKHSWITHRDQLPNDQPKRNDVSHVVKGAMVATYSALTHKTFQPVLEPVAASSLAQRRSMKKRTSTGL
Chain of kinases (KINOMEscan panel) (Homo sapiens, UniProt P27361) (P27361 whole entry): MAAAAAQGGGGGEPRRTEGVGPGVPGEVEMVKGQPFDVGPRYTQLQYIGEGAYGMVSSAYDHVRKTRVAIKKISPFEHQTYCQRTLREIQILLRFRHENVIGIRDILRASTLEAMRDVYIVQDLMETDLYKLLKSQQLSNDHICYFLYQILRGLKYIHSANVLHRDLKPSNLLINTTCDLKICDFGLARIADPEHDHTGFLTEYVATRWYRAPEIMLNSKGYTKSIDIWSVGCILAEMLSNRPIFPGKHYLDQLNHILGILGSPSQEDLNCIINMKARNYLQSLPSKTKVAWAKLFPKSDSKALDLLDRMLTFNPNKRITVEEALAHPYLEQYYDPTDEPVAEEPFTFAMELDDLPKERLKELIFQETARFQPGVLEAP

## Cc1cccc(-c2nc(N(C)c3ccc4ncsc4c3)c3ccccc3n2)n1 [NK-161]
[1]
  KINOMEscan SLTM/MET: 11
[2]
  KINOMEscan RPS6KA6/RSK4(Kin.Dom.1-N-terminal): 8
  KINOMEscan RPS6KA6/RSK4(Kin.Dom.2-C-terminal): 4
[3]
  KINOMEscan MAPK3/ERK1: 14
[4]; RPS6KA4(Kin.Dom.1-N-terminal)
  KINOMEscan RPS6KA4(Kin.Dom.1-N-terminal): 0
[4]; RPS6KA4(Kin.Dom.2-C-terminal)
  KINOMEscan RPS6KA4(Kin.Dom.2-C-terminal): 0
[5]
  KINOMEscan MAP3K5/ASK1: 0
[6]
  KINOMEscan MAP2K6/MEK6: 12
[7]
  KINOMEscan RPS6KA2/RSK3(Kin.Dom.1-N-terminal): 0
  KINOMEscan RPS6KA2/RSK3(Kin.Dom.2-C-terminal): 16
[8]
  KINOMEscan PKN1/PAK1: 0
[9]
  KINOMEscan NUAK1/ARK5: 0
[10]
  KINOMEscan PTK2/FAK: 0
[11]
  KINOMEscan MAPK6/ERK3: 14
[12]
  KINOMEscan STK32C/YANK3: 18
[13]
  KINOMEscan KDR/VEGFR2: 4
[14]
  KINOMEscan NIM1K/NIM1: 12
[15]
  KINOMEscan STK11/LKB1: 0
[16]
  KINOMEscan PNCK/CAMK1B: 0
[17]
  KINOMEscan MAPK7/ERK5: 0
[18]
  KINOMEscan MAP2K7/MKK7: 0
[19]
  KINOMEscan MAP3K12/DLK: 0
[20]
  KINOMEscan STK17A/DRAK1: 0
[21]
  KINOMEscan STK4/MST1: 17
[22]
  KINOMEscan MAP3K20/ZAK: 0
[23]
  KINOMEscan PIK3C3/VPS34: 0
[24]
  KINOMEscan STK24/MST3: 0
[25]
  KINOMEscan PTK6/BRK: 0
[26]
  KINOMEscan RPS6KA1/RSK1(Kin.Dom.1-N-terminal): 9
  KINOMEscan RPS6KA1/RSK1(Kin.Dom.2-C-terminal): 34
[27]
  KINOMEscan BMP2K/BIKE: 12
[28]
  KINOMEscan SIK3/QSK: 0
[29]
  KINOMEscan NTRK2/TRKB: 45
[30]
  KINOMEscan YES1/YES: 0
[31]
  KINOMEscan MAPK4/ERK4: 6
[32]
  KINOMEscan STK32B/YANK2: 17
[33]
  KINOMEscan MAP4K1/HPK1: 0
[34]
  KINOMEscan MAP2K5/MEK5: 0
[35]
  KINOMEscan PTK2B/PYK2: 9
[36]
  KINOMEscan MAP2K4/MEK4: 0
[37]
  KINOMEscan STK32A/YANK1: 0
[38]
  KINOMEscan MAPK8/JNK1: 0
[39]
  KINOMEscan MAPK15/ERK8: 0
[40]
  KINOMEscan MAP3K6/ASK2: 0
